Experimental data taken from US6509356B1, “1-(4-(Substituted alkoxy)benzyl)naphthalene compounds having estrogen inhibitory activity” (Eli Lilly and Company, priority 1997, dated 2003).
Where a name gives a salt, the structure may show the parent alone.

Tested on: MCF-7 breast adenocarcinoma cells
Test: MCF-7 Proliferation Assay (tritiated thymidine incorporation)
Format: cell-based
Conditions: Homo sapiens, MCF7; MCF-7 cells (ATCC HTB 22) in DCC-FBS assay medium, 48 hours with drug, then tritiated thymidine pulse for 4 hours; read-out: Inhibition of MCF7 cell proliferation: ED50
Excerpt: Biological Activity of the Compounds of the Present Invention—MCF-7 Proliferation Assay
The data reported in each of the Examples given above for inhibition of MCF-7 cell proliferation were obtained in an assay which determined each compound's ability to inhibit the proliferation of MCF-7 breast adenocarcinoma cells.
In the assay, these cells (ATCC HTB 22) are maintained in minimal essential medium, phenol red-free, (Sigma, St. Louis, Mo.) supplemented with 10% (V/V) fetal bovine serum (FBS), L-glutamine (2 mM), sodium pyruvate (1 mM), HEPES {(N-[2-hydroxyethyl]piperazine-N′-[2-ethanesulfonic acid] 10 mM}, non-essential amino acids and bovine insulin (1 ug/mL) (maintenance medium). Ten days prior to assay, MCF-7 cells are switched to maintenance medium supplemented with 10% dextran coated charcoal stripped fetal bovine serum (DCC-FBS) assay medium) in place of 10% FBS to deplete internal stores of steroids. MCF-7 cells are removed from maintenance flasks using cell dissociation medium (Ca++/Mg++ free HBSS (phenol red-free) supplemented with 10 mM HEPES and 2 mM EDTA). Cells are washed twice with assay medium and adjusted to 80,000 cells/mL. Approximately […] (8,000 cells) are added to flat-bottom microculture wells (Costar 3596) and incubated at 37° C. in a 5% CO2 humidified incubator for 48 hours to allow for cell adherence and equilibration after transfer. Serial dilutions of drugs or DMSO as a diluent control are prepared in assay medium and […] to triplicate microcultures followed by […] assay medium for a final volume of […]. After an additional 48 hours at 37° C. in a 5% CO2 humidified incubator, microcultures are pulsed with tritiated thymidine (1 uCi/well) for 4 hours. Cultures are terminated by freezing at −70° C. for 24 hours followed by thawing and harvesting of microcultures using a Skatron Semiautomatic Cell Harvester. Samples are counted by liquid scintillation using a Wallac BetaPlace β counter.

Row | SMILES | EC50 [nM]
1 | CN1CCCC1COc1ccc(Cc2c(-c3ccc(O)cc3)ccc3cc(O)ccc23)cc1 (centres unmarked) [Example 1, 6-Hydroxy-2-(4-hydroxyphenyl)-1-[4-(N-methylpyrrolidin-2-yl)methoxy-benzyl]naphthalene hydrochloride] | 0.5
2 | CCN(CC)CCCOc1ccc(Cc2c(-c3ccc(O)cc3)ccc3cc(O)ccc23)cc1 [Example 2, 6-Hydroxy-2-(4-hydroxyphenyl)-1-[4-(3-(N,N-diethylamino)-propoxy)benzyl]naphthalene hydrochloride] | 0.9
3 | CC(C)N(CCOc1ccc(Cc2c(-c3ccc(O)cc3)ccc3cc(O)ccc23)cc1)C(C)C [Example 3, 6-hydroxy-2-(4-hydroxyphenyl)-1-[4-(2-(N,N-diisopropyl-amino)ethoxy)benzyl]naphthalene hydrochloride] | 2
4 | CN1CCCCC1COc1ccc(Cc2c(-c3ccc(O)cc3)ccc3cc(O)ccc23)cc1 (centres unmarked) [Example 4, 6-hydroxy-2-(4-hydroxyphenyl)-1-[4-(N-methylpiperidin-2-yl)-methoxybenzyl]naphthalene hydrochloride] | 2
5 | CN1CCCC(COc2ccc(Cc3c(-c4ccc(O)cc4)ccc4cc(O)ccc34)cc2)C1 (centres unmarked) [Example 5, 6-hydroxy-2-(4-hydroxyphenyl)-1-[4-(N-methylpiperidin-3-yl)-methoxybenzyl]naphthalene hydrochloride] | 2
6 | CCCCN(CCCC)CCOc1ccc(Cc2c(-c3ccc(O)cc3)ccc3cc(O)ccc23)cc1 [Example 6, 6-hydroxy-2-(4-hydroxyphenyl)-1-[4-(2-(N,N-di-n-butylamino)-ethoxy)benzyl]naphthalene hydrochloride] | 2
7 | CCCCN(CCCC)CCCOc1ccc(Cc2c(-c3ccc(O)cc3)ccc3cc(O)ccc23)cc1 [Example 7, 6-hydroxy-2-(4-hydroxyphenyl)-1-[4-(3-(N,N-di-n-butylamino)-propoxy)benzyl]naphthalene hydrochloride] | 4
8 | CC(=O)c1ccc(N2CCN(CCOc3ccc(Cc4c(-c5ccc(O)cc5)ccc5cc(O)ccc45)cc3)CC2)cc1 [Example 8, 6-hydroxy-2-(4-hydroxyphenyl)-1-[4-(2-(4-(4-acetylphenyl)piperazin-1-yl)ethoxy)benzyl]-naphthalene dihydrochloride] | 4
9 | Oc1ccc(-c2ccc3cc(O)ccc3c2Cc2ccc(OCCCNc3cccc4ccccc34)cc2)cc1 [Example 9, 6-hydroxy-2-(4-hydroxyphenyl)-1-[4-(3-(naphth-1-ylamino)propoxy)benzyl]naphthalene hydrochloride] | 9
10 | CCN(CCOc1ccc(Cc2c(-c3ccc(O)cc3)ccc3cc(O)ccc23)cc1)C(=O)Nc1cc(Cl)ccc1C [Example 11, N-ethyl-N-[4-(2-(6-hydroxy-2-(4-hydroxyphenyl)naphth-1-yl-methyl)phenoxy)ethyl]-N′-5-chloro-2-methylphenyl urea] | 10
11 | CC1CN(CCOc2ccc(Cc3c(-c4ccc(O)cc4)ccc4cc(O)ccc34)cc2)CC(C)O1 (centres unmarked) [Example 13, 6-hydroxy-2-(4-hydroxyphenyl)-1-[4-(2-(2,6-dimethylmorpholin-4-yl)ethoxy)benzyl]naphthalene hydrochloride] | 20
12 | Oc1ccc(-c2ccc3cc(O)ccc3c2Cc2ccc(OCCCN3CCC4(CCCCC4)CC3)cc2)cc1 [Example 14, hydrochloride] | 30
13 | O=C1CCCN1CCOc1ccc(Cc2c(-c3ccc(O)cc3)ccc3cc(O)ccc23)cc1 [Example 15, 6-hydroxy-2-(4-hydroxyphenyl)-1-[4-(2-(pyrollidinon-1-yl)ethoxy)benzyl]naphthalene] | 40
14 | O=C1CCCN1CCCOc1ccc(Cc2c(-c3ccc(O)cc3)ccc3cc(O)ccc23)cc1 [Example 16, 6-hydroxy-2-(4-hydroxyphenyl)-1-[4-(3-(pyrollidinon-1-yl)propoxy)benzyl]naphthalene] | 30
